Patent US8058313B2, “Alpha, beta-unsaturated sulfones, sulfoxides, sulfonimides, sulfinimides, acylsulfonamides and acylsulfinamides and therapeutic uses thereof” (Temple University—Of The Commonwealth System of Higher …, priority 2004, dated 2011)

Assays:
[1] = molecular target: recombinant FLT1 active protein (Homo sapiens, UniProt P17948); assay: In vitro filter assay for FLT1 kinase activity; assay type: biochemical; details: 30 min preincubation at room temperature, kinase reaction 20 min at 30° C., 100 μM ATP, 250 μM IGF-1Rtide, triplicate
Chain of recombinant FLT1 active protein (P17948 27-1338): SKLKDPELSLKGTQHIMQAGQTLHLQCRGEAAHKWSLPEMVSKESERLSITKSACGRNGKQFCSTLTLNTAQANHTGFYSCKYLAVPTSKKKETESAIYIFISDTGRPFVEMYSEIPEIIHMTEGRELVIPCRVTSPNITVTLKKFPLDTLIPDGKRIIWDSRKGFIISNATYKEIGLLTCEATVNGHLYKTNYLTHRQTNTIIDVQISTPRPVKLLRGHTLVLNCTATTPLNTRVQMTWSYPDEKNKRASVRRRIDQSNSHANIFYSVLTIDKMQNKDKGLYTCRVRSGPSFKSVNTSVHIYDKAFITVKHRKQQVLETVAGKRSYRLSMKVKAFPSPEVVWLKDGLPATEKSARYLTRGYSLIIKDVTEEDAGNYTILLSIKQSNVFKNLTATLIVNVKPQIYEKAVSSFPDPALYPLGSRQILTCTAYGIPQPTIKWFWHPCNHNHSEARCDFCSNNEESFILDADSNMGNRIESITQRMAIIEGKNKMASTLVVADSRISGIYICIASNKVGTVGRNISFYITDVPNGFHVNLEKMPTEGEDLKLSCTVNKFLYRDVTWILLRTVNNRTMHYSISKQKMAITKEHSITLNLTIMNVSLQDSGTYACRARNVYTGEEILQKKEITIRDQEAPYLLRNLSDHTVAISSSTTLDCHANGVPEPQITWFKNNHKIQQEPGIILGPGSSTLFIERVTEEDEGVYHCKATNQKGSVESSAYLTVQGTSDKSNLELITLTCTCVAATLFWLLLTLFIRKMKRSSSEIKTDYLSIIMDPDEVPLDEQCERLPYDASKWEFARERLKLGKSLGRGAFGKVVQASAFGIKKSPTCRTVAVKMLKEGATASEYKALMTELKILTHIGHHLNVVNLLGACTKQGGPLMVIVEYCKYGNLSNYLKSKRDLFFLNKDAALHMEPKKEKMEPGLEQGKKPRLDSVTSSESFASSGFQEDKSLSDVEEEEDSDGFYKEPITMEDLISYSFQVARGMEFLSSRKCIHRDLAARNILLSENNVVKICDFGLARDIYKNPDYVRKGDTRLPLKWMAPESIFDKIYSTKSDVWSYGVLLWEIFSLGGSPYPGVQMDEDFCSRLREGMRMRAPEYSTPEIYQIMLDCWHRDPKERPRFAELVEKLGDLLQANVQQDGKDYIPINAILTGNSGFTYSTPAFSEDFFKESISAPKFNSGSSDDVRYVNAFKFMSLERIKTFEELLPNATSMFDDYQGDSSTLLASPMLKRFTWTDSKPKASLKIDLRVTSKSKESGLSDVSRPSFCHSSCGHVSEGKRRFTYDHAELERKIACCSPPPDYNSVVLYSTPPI
Procedure: The inhibition of FLT1 by compounds according to Formula I was assessed by employing an in vitro filter assay for FLT1.
Compounds 1-15 were prepared as 10 mmol stock solutions in DMSO. Curcumin was also prepared as a 10 mmol stock solution for testing in the FLT1 assay. Five units of recombinant FLT1 active protein was incubated with different concentrations of each compound in a 15 μl reaction mixture (50 mM HEPES, 10 mM MgCl2, 1 mM EDTA, 2 mM Dithiothreitol 0.01% NP-40 pH 7.5) for 30 minutes at room temperature (25° C). Kinase reactions were performed for 20 minutes at 30° C. in a volume of 20 μl (15 μl enzyme+compound of Formula I, 2 μl 1 mM ATP (100 μM final concentration), 2 μl of γ 32^pATP (40 μci final concentration) and 250 μM of IGF-1Rtide. 10 μl aliquots of the kinase reaction were spotted onto the center of a filter (2 cm×2 cm P81 phosphocellulose paper square). After 30 seconds, the filters were washed with 0.75% phosphoric acid (3×5 minutes) and once with acetone (5 minutes). The wet filters were transferred into a scintillation vial containing scintillation cocktail ^32P (5 mL). Radioactivity was determined using a scintillation counter. Control analyses were performed with DMSO stock solutions containing no compound. Binding values were corrected for non-specific binding by performing duplicate assays in the absence of FLT1 enzyme and subtracting the non-specific binding values from the values obtained in the presence of FLT1. Counts per minute (CPM) of aliquots containing a compound of Formula I were compared with CPM of control samples. The kinase activity is expressed in percent of the maximal kinase activity. […] All assays were carried out in triplicate.

[2] = tested on: androgen receptor negative prostate (DU145) cell line; assay: Effect on growth of human tumor cells in culture (viable cells, Trypan blue exclusion); assay type: cell-based; details: five concentrations (1-100 μM range), read from dose response curve
Procedure: The effect of compounds according to Formula I on the growth of human tumor cells in culture was evaluated using the androgen receptor negative prostate (DU145) cell line. The cell culture was maintained at 37° C. in a humidified atmosphere of 5% CO2.
Cells were treated with compounds according to Formula I at five different concentrations (1-100 μM range) for each compound. For comparison, the cells were treated with curcumin at the same concentrations. The dose response was established by determining the number of viable cells after 96 h of continuous treatment against each of the different test concentrations of each compound. The determination of viable cells was done by the Trypan blue exclusion method. Activity for each compound at each concentration is reported as a percentage of cells that remain viable.
The GI50 values were determined by direct extrapolation from each dose response curve.

[3] = Homo sapiens, DU-145, 96 h continuous treatment

Work on “4-((1E)-2-(((E)-4-hydroxy-2,6-dimethoxystyrylsulfonyl)methylsulfonyl)vinyl)-3,5-dimethoxyphenol. [Example 15]” yielded an IC50 [1] of 0.077 µM and a GI50 ([2]; 96 h continuous treatment) of under 1 µM.
Compound `COc1cc(/C=C/S(=O)(=O)CS(=O)(=O)/C=C/c2ccc(O)c(OC)c2)ccc1O` [Example 1, 4-((1E)-2-(((E)-4-Hydroxy-3-methoxystyrylsulfonyl)methylsulfonyl)vinyl)-2-methoxyphenol] has an IC50 [1] of 3.89 µM and a GI50 [2, 3] of under 10 µM.
`COc1cc(OC)c(/C=C/S(=O)(=O)CS(=O)(=O)/C=C/c2c(OC)cc(OC)cc2OC)c(OC)c1` [Example 2, bis((E)-2,4,6-Trimethoxystyrylsulfonyl)methane] gave an IC50 [1] of 0.281 µM and a GI50 [2, 3] of 75 µM.
In the case of `N#Cc1ccc(/C=C/S(=O)(=O)CS(=O)(=O)/C=C/c2ccc(C#N)cc2F)c(F)c1` [Example 3, 4-((1E)-2-(((E)-2-Fluoro-4-cyanostyrylsulfonyl)methylsulfonyl)vinyl)-3-fluorobenzonitrile], the IC50 [1] is reported as 0.162 µM and the GI50 [2, 3] is reported as 25 to 50 µM.
`O=S(=O)(/C=C/c1ccc(F)cc1F)CS(=O)(=O)/C=C/c1ccc(F)cc1F` [Example 4, bis((E)-2,4-Difluorostyrylsulfonyl)methane] showed an IC50 [1] of 2.23 µM and a GI50 [2, 3] of under 10 µM.
`COc1cccc(OC)c1/C=C/S(=O)(=O)CS(=O)(=O)/C=C/c1c(OC)cccc1OC` [Example 5, bis((E)-2,6-Dimethoxystyrylsulfonyl)methane] was tested, and the IC50 [1] was 12.8 µM and the GI50 [2, 3] was 25 to 50 µM.
For `O=S(=O)(/C=C/c1ccc(Cl)cc1)CS(=O)(=O)/C=C/c1ccc(Cl)cc1` [Example 6, bis((E)-4-Chlorostyrylsulfonyl)methane], the IC50 [1] was 51 µM and the GI50 [2, 3] was 10 to 25 µM.
`O=S(=O)(/C=C/c1ccc(Br)cc1)CS(=O)(=O)/C=C/c1ccc(Br)cc1` [Example 7, bis((E)-4-Bromostyrylsulfonyl)methane] was tested, and the IC50 [1] was 0.316 µM and the GI50 [2, 3] was under 10 µM.
For `O=S(=O)(/C=C/c1ccsc1)CS(=O)(=O)/C=C/c1ccsc1` [Example 8, bis((E)-2-(Thiophen-3-yl)vinylsulfonyl)methane], the IC50 [1] was 11.2 µM and the GI50 [2, 3] was under 10 µM.
`O=S(=O)(/C=C/c1ccccc1)CS(=O)(=O)/C=C/c1ccccc1` [Example 9, bis((E)-Styrylsulfonyl)methane] showed an IC50 [1] of over 100 µM and a GI50 [2, 3] of 10 to 25 µM.
Work on `O=S(=O)(/C=C/c1ccc(I)cc1)CS(=O)(=O)/C=C/c1ccc(I)cc1` [Example 10, bis((E)-4-Iodostyrylsulfonyl)methane] yielded an IC50 [1] of over 10 µM.
`O=S(=O)(/C=C/c1ccc(F)cc1)CS(=O)(=O)/C=C/c1ccc(F)cc1` [Example 11, bis((E)-4-Fluorostyrylsulfonyl)methane] was tested, and the IC50 [1] was over 100 µM and the GI50 [2, 3] was under 10 µM.
`COc1cc(/C=C/S(=O)(=O)CS(=O)(=O)/C=C/c2cc(OC)c(OC)c(OC)c2)cc(OC)c1OC` [Example 14, bis((E)-3,4,5-Trimethoxystyrylsulfonyl)methane] showed an IC50 [1] of over 10 µM and a GI50 [2, 3] of 7.5 µM.
`COc1cc(/C=C/C(=O)CC(=O)/C=C/c2ccc(O)c(OC)c2)ccc1O` [curcumin, reference compound] was tested, and the IC50 [1] was 35 µM and the GI50 [2, 3] was 35 µM.
“bis((E)-Perfluorostyrylsulfonyl)methane [Example 13]” gave an IC50 [1] of 0.416 µM and a GI50 ([2]; 96 h continuous treatment) of under 2.5 µM.
